Results from US10869931B2, “Polyethylene glycol-modified angiogenesis inhibitor HM-1 and application thereof” (NANJING ANJI BIOLOGICAL TECHNOLOGY CO.,LTD, priority 2016, dated 2020).
Marks after values point to notes of the source that are not given here. Where no end group is shown, it is not given here.

Legend:
[1] = tested on: Cervical cancer tumor cells; assay: MTT proliferation inhibition, cervical cancer cells; type: cell-based, human; parameters: concentration or dose not given beside the values; conditions: 48 h
Protocol: (§1) The activity of mPEG-HM-1 to inhibit the growth of various tumor cells was examined by MTT assay. The tumor cells were cultured to a concentration of 90% or more in a 37° C., 5% CO2 incubator and collected by trypsinization. The cells were resuspended in the culture medium and counted under a microscope to adjust the cell concentration to 2×10^4 cells/mL, the cell suspension was inoculated into a 96-well plate at 100 μL/well and incubated overnight at 37° C. in a 5% CO2 incubator. mPEG-HM-1 was diluted with the culture solution to each predetermined concentration. Docetaxel is diluted to the final concentration with the culture medium. After the cells were fully attached, each dilution was added to a 96-well plate (100 μL/well). The mPEG-HM-1 dilution was added as a drug-administered group, and docetaxel was added as a positive control group, and a culture solution without any drug was used as a negative control group. Incubate for 48 h at 37° C. in a 5% CO2 incubator. 5 mg/mL of MTT was added to a 96-well plate at 20 μL per well, and incubation was continued for 4 hours. The medium was aspirated, dissolved in 150 μL of DMSO per well, and gently mixed by shaking for 10 min. The absorbance was measured at a measurement wavelength of 570 nm and a reference wavelength of 630 nm using a microplate reader, and the rate of growth inhibition (proliferation inhibition, PI) was calculated. The formula is as follows: PI (%)=1−administration group/negative group
(§2) The test was repeated 3 times independently, and the results obtained by the test were expressed as mean±SD, and the test results are shown in Table 15 to Table 18.

[2] = tested on: Thyroid cancer tumor cells; assay: MTT proliferation inhibition, thyroid cancer cells; type: cell-based, human; parameters: concentration or dose not given beside the values; conditions: 48 h
Protocol: as §1, §2

[3] = tested on: Head and neck cancer tumor cells; assay: MTT proliferation inhibition, head and neck cancer cells; type: cell-based, human; parameters: concentration or dose not given beside the values; conditions: 48 h
Protocol: as §1, §2

Brain tumor cells = assay: MTT proliferation inhibition, brain tumor cells; type: cell-based, human; parameters: concentration or dose not given beside the values; conditions: 48 h
Protocol: as §1, §2

[4] = tested on: IL-1β production by mouse peritoneal macrophages; assay: IL-1β production by mouse peritoneal macrophages (ELISA); type: cell-based; conditions: 48 h
Protocol: (1) IL-1β production: mice were intraperitoneally injected with 1 mL of broth (containing 6%) starch, and three days later, the mouse peritoneal macrophages were aseptically taken, washed twice with 1640 medium, and the cell concentration was adjusted to 2×10^6 cells/mL, inject into a 24-well culture plate, 1 mL per well, incubate for 3 hours in a cell culture incubator, shake once every 30 minutes, and allow the cells to fully adhere. Then, it was washed twice with the culture solution to remove unattached cells. The blank group was added with PBS, the positive group was added with the positive drug dexamethasone (Dex), the model group was not administered, to the experimental group was added low, medium and high three concentrations of mPEG-HM-1, and the culture was continued for 48 hours after the administration, 1000 r/min. Centrifuge for 15 min. The supernatant was taken as a sample for testing activity of IL-1β.
(2) Determination of IL-1β content: using R&D mouse IL-1β enzyme-linked immunosorbent assay kit, according to the kit instructions as follows: respectively, the tested samples and different concentrations of standard products, sealed with sealing tape the reaction well and incubated at 37° C. for 90 min; the plate was washed four times; the biotinylated antibody working solution (100 μL/well) was added, and the reaction well was sealed with sealing paper, incubated at 37° c. for 60 min; the plate was washed four times; Add the enzyme conjugate working solution (100 μL/well), seal the reaction well with sealing paper, incubate at 37° C. for 30 min; wash the plate four times; add color reagent (100 μL/well), incubate at 37° C. 10-20 min, add stop solution (100 μL/well), mix and measure OD450 value.

[5] = tested on: Uterine cancer tumor cells; assay: MTT proliferation inhibition, uterine cancer cells; type: cell-based, human; parameters: concentration or dose not given beside the values; conditions: 48 h
Protocol: as §1, §2

[6] = tested on: xylene-induced ear swelling in Kunming mice; assay: Xylene-induced ear swelling in mice; type: in vivo, mouse; conditions: for Swelling: 2 h after xylene; for Inhibition rate: ear swelling vs control
Protocol: Kunming mice were used. The saline group was used as the blank control group, the aspirin group (200 mg/kg) as the positive control group, and the mPEG-HM-1 administration group as the experimental group. Mice were administered once daily for 5 consecutive days. The blank control group was given an equal volume of physiological saline. One hour after the last administration, 0.05 mL of xylene was applied to both sides of the right ear of the mice to cause inflammation, and the left ear was not coated as normal ears. After 2 h, the mice were sacrificed by dislocation, and the ears were cut along the auricle. Ear pieces were taken with a puncher, weighed, and the swelling degree and swelling rate were calculated. Swelling degree=right ear piece weight-left ear piece weight, swelling rate=(swelling degree/left ear piece weight)×100%. Statistical t-test was performed on the test results, *P<0.05 was a significant difference, and **P<0.01 was a very significant difference. See Table 31 to Table 34 for the results.

[7] = tested on: Prostate cancer tumor cells; assay: MTT proliferation inhibition, prostate cancer cells; type: cell-based, human; parameters: concentration or dose not given beside the values; conditions: 48 h
Protocol: as §1, §2

[8] = in vivo
mouse spleen lymphocytes = assay: ConA-stimulated mouse spleen lymphocyte proliferation (MTT); type: cell-based; conditions: ConA 5 μg/mL, 48 h
Protocol: Tris-NH4Cl was used to break the red blood cells, and the cells were allowed to stand in an ice water bath for 4 min, centrifuged (1000 rpm×5 min), the supernatant was discarded, and the cells were washed twice with sterile PBS. Finally, cells were suspended in RPMI 1640 medium (5 mL) supplemented with 10% calf serum, counted, adjusted to a cell concentration of 5×10^6/mL, and cultured in a 96-well culture plate The test group consisted of blank control group, concanavalin A (ConA) group, dexamethasone (Dex) group (0.02 mg/mL) and mPEG-HM-1 group. […] The cells were cultured in a 37° C. cell culture chamber for 48 h. After the completion of the culture, 20 μL of MTT was added to each well, and the culture was continued for 4 h. Finally, all the solutions in each well were discarded, 100 μL of DMSO was added to each well, and the mixture was shaken and detected by a microplate reader OD value at 570 nm, 5 parallels per hole.

Lung cancer tumor cells = assay: MTT proliferation inhibition, lung cancer cells; type: cell-based, human; parameters: concentration or dose not given beside the values; conditions: 48 h
Protocol: as §1, §2

[9] = 160 mg/kg once daily for 5 days

mPEG2-NHS40k-Arg-Gly-Ala-Asp-Arg-Ala-Gly-Gly-Gly-Gly-Arg-Gly-Asp ({mPEG2‑NHS 40 kDa}-RGADRAGGGGRGD) [mPEG2-NHS40k-HM-1]
rate of growth inhibition [1]: 57.33 ± 14.28% | rate of growth inhibition [2]: 45.19 ± 14.07% | rate of growth inhibition [3]: 40.36 ± 10.53% | rate of growth inhibition (Brain tumor cells): 42.56 ± 11.38% | IL-1β ([4]; 40 μg/mL): 756.84 ± 15.32 pg/mL | Inhibition Rate of IL-1β production ([4]; 40 μg/mL): 18.28% | IL-1β ([4]; 80 μg/mL): 673.30 ± 16.71 pg/mL | Inhibition Rate of IL-1β production ([4]; 80 μg/mL): 27.30% | IL-1β ([4]; 160 μg/mL): 568.00 ± 10.82 pg/mL | Inhibition Rate of IL-1β production ([4]; 160 μg/mL): 38.67% | rate of growth inhibition [5]: 62.25 ± 20.39% | Swelling ([6]; 40 mg/kg once daily for 5 days): 5.47 ± 0.12 mg | Inhibition rate ([6]; 40 mg/kg once daily for 5 days): 11.52% | Swelling ([6]; 80 mg/kg once daily for 5 days): 4.83 ± 0.67* mg | Inhibition rate ([6]; 80 mg/kg once daily for 5 days): 21.88% | Swelling [6, 9]: 4.19 ± 0.34** mg | Inhibition rate [6, 9]: 32.26% | rate of growth inhibition [7]: 45.91 ± 11.74% | AUC0-∞ [8]: 4579.47 ± 13.52 mg/L/h | CL [8]: 0.11 ± 0.0883 mL/min/kg | MRT0-∞ [8]: 15.27 ± 9.37 h | T1/2β (half-life) [8]: 42.25 ± 0.27 h | A570 nm/A630 nm (mouse spleen lymphocytes; 40 μg/mL): 0.6191 ± 0.0984 | Inhibition Rate of spleen lymphocyte proliferation (mouse spleen lymphocytes; 40 μg/mL): 10.59% | A570 nm/A630 nm (mouse spleen lymphocytes; 80 μg/mL): 0.4985 ± 0.1248 | Inhibition Rate of spleen lymphocyte proliferation (mouse spleen lymphocytes; 80 μg/mL): 28.01% | A570 nm/A630 nm (mouse spleen lymphocytes; 160 μg/mL): 0.4827 ± 0.1136 | Inhibition Rate of spleen lymphocyte proliferation (mouse spleen lymphocytes; 160 μg/mL): 30.28% | rate of growth inhibition (Lung cancer tumor cells): 49.39 ± 16.55%

mPEG-ALD20k-Arg-Gly-Ala-Asp-Arg-Ala-Gly-Gly-Gly-Gly-Arg-Gly-Asp ({mPEG‑ALD 20 kDa}-RGADRAGGGGRGD) [mPEG-ALD20k-HM-1]
rate of growth inhibition [1]: 75.66 ± 20.10% | rate of growth inhibition [2]: 50.35 ± 15.23% | rate of growth inhibition [3]: 47.61 ± 10.68% | rate of growth inhibition (Brain tumor cells): 56.89 ± 15.41% | IL-1β ([4]; 20 μg/mL): 729.13 ± 13.12 pg/mL | Inhibition Rate of IL-1β production ([4]; 20 μg/mL): 20.48% | IL-1β ([4]; 40 μg/mL): 628.18 ± 15.34 pg/mL | Inhibition Rate of IL-1β production ([4]; 40 μg/mL): 31.49% | IL-1β ([4]; 80 μg/mL): 438.93 ± 12.56 pg/mL | Inhibition Rate of IL-1β production ([4]; 80 μg/mL): 52.13% | rate of growth inhibition [5]: 89.37 ± 23.47% | Swelling ([6]; 20 mg/kg once daily for 5 days): 4.89 ± 0.20 mg | Inhibition rate ([6]; 20 mg/kg once daily for 5 days): 20.10% | Swelling ([6]; 40 mg/kg once daily for 5 days): 4.52 ± 0.32* mg | Inhibition rate ([6]; 40 mg/kg once daily for 5 days): 26.19% | Swelling ([6]; 80 mg/kg once daily for 5 days): 3.70 ± 0.20** mg | Inhibition rate ([6]; 80 mg/kg once daily for 5 days): 39.47% | inhibition rate of ear swelling ([6]; 80 mg/kg, once daily for 5 days, mice): 37.76% | rate of growth inhibition [7]: 43.99 ± 12.77% | AUC0-∞ [8]: 5899.46 ± 6.68 mg/L/h | CL [8]: 0.215 ± 0.177 mL/min/kg | MRT0-∞ [8]: 18.65 ± 2.57 h | T1/2β (half-life) [8]: 22.65 ± 0.21 h | A570 nm/A630 nm (mouse spleen lymphocytes; 20 μg/mL): 0.6035 ± 0.0989 | Inhibition Rate of spleen lymphocyte proliferation (mouse spleen lymphocytes; 20 μg/mL): 12.14% | A570 nm/A630 nm (mouse spleen lymphocytes; 40 μg/mL): 0.4876 ± 0.1259 | Inhibition Rate of spleen lymphocyte proliferation (mouse spleen lymphocytes; 40 μg/mL): 29.02% | A570 nm/A630 nm (mouse spleen lymphocytes; 80 μg/mL): 0.4406 ± 0.1074 | Inhibition Rate of spleen lymphocyte proliferation (mouse spleen lymphocytes; 80 μg/mL): 35.85% | rate of growth inhibition (Lung cancer tumor cells): 66.38 ± 17.16%

mPEG-SC10k-Arg-Gly-Ala-Asp-Arg-Ala-Gly-Gly-Gly-Gly-Arg-Gly-Asp ({mPEG‑SC 10 kDa}-RGADRAGGGGRGD) [mPEG-SC10k-HM-1]
rate of growth inhibition [1]: 57.17 ± 18.40% | rate of growth inhibition [2]: 46.23 ± 13.05% | rate of growth inhibition [3]: 45.61 ± 11.12% | rate of growth inhibition (Brain tumor cells): 50.21 ± 12.19% | IL-1β ([4]; 10 μg/mL): 758.05 ± 15.18 pg/mL | Inhibition Rate of IL-1β production ([4]; 10 μg/mL): 19.10% | IL-1β ([4]; 20 μg/mL): 666.50 ± 11.93 pg/mL | Inhibition Rate of IL-1β production ([4]; 20 μg/mL): 28.87% | IL-1β ([4]; 40 μg/mL): 553.03 ± 14.12 pg/mL | Inhibition Rate of IL-1β production ([4]; 40 μg/mL): 40.98% | rate of growth inhibition [5]: 65.29 ± 19.06% | Swelling ([6]; 10 mg/kg once daily for 5 days): 5.49 ± 0.23 mg | Inhibition rate ([6]; 10 mg/kg once daily for 5 days): 10.55% | Swelling ([6]; 20 mg/kg once daily for 5 days): 4.83 ± 0.32* mg | Inhibition rate ([6]; 20 mg/kg once daily for 5 days): 21.37% | Swelling ([6]; 40 mg/kg once daily for 5 days): 3.98 ± 0.21** mg | Inhibition rate ([6]; 40 mg/kg once daily for 5 days): 35.20% | rate of growth inhibition [7]: 45.39 ± 12.63% | AUC0-∞ [8]: 4671.86 ± 10.76 mg/L/h | CL [8]: 0.455 ± 0.0933 mL/min/kg | MRT0-∞ [8]: 12.67 ± 5.84 h | T1/2β (half-life) [8]: 15.18 ± 0.11 h | A570 nm/A630 nm (mouse spleen lymphocytes; 10 μg/mL): 0.6234 ± 0.0976 | Inhibition Rate of spleen lymphocyte proliferation (mouse spleen lymphocytes; 10 μg/mL): 9.60% | A570 nm/A630 nm (mouse spleen lymphocytes; 20 μg/mL): 0.5488 ± 0.1052 | Inhibition Rate of spleen lymphocyte proliferation (mouse spleen lymphocytes; 20 μg/mL): 20.42% | A570 nm/A630 nm (mouse spleen lymphocytes; 40 μg/mL): 0.4788 ± 0.1282 | Inhibition Rate of spleen lymphocyte proliferation (mouse spleen lymphocytes; 40 μg/mL): 30.57% | rate of growth inhibition (Lung cancer tumor cells): 50.29 ± 13.18%
